Measured values published in patent US20240382600A1, “BIFUNCTIONAL DEGRADERS COMPRISING A TEAD BINDER” (Novartis AG, priority 2021, published 2024).

Experiments:
[1] = system: YAP-dependent transcription in SF268-MCAT_Luc_dox-i-shYAPLevy (Clone 13) cells; experiment: YAP reporter gene activity assay (MCAT-Luc), SF268; type: cell-based; details: Homo sapiens, SF-268; SF268 MCAT_Luc, 24 hrs
[2] = molecular target: TEAD1-GFP in HEK293A cells (Homo sapiens (Human), UniProt P28347); experiment: TEAD1 protein abundance flow cytometry assay in HEK293A; type: cell-based; details: HEK293A TEAD1-GFP-CHYSEL-mCherry sensor cells, 24 h, GFP signal by flow cytometry
Sequence of TEAD1-GFP in HEK293A cells (P28347 whole entry): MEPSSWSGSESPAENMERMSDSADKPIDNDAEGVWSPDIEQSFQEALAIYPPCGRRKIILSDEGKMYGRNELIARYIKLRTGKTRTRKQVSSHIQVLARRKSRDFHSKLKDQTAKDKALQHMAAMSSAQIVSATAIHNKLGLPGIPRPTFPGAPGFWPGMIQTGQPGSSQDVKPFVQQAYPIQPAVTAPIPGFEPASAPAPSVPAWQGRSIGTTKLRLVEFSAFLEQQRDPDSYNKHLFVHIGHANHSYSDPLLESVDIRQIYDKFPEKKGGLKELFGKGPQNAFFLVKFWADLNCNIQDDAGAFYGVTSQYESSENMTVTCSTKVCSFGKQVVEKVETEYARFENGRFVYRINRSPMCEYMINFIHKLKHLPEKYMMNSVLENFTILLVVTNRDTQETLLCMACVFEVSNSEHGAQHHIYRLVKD
Method: Degradation of TEAD1 was measured in HEK293A cells (Invitrogen R70507) expressing TEAD1-GFP and mCherry from a stably integrated bicistronic TEAD1-GFP-CHYSEL-mCherry construct. Reduction of the GFP signal measured by flow cytometry served as readout for TEAD1 degradation after degrader treatment.
Stable HEK293A sensor cells were maintained in complete growth medium (DMEM high Glucose+10% FCS+1% L-Glutamine+1% NEAA+1% NaPyr.+4 μg/mL blasticidin) with passaging performed twice per week. On Day 0, stable HEK293A sensor cells were seeded at 5,000 cells/well in a 96-well microtiter plate in 100 μL complete medium. On Day 1, cells were treated in duplicate with 10-point 1:3 dilution series of compound using the HP D300 Digital Dispenser (Tecan). DMSO concentrations were normalized across the plate to 0.1%. On Day 2, after 24 h of incubation at 37° C., treatment media was discarded, cells rinsed with 100 μL/well PBS and then detached using 40 μL trypsin/well for 5 min. Trypsin was neutralized with 100 μL/well PBS+20% FCS).
Flow cytometry was performed on the samples using the CytoFlex S (Beckman Coulter). Cell identification was then performed using forward (FSC) vs. side scatter (SSC) plots. Single cell discrimination was performed using SSC-Width (SSC-W) vs. SSC-Height (SSCH) plots. Median GFP values for 2,500 single cells were used to determine TEAD1 levels. Median GFP values from HEK293A were used as a background signal and thus defining 0% TEAD1 signal. Median GFP values from DMSO treated HEK293A TEAD1-GFP CHYSEL-mCherry were used to define 100%
TEAD1 signal for subsequent DC50 curves (concentration at 50% TAED1 degradation). GFP and RFP were read in the channels called FITC and PE, respectively. Concentration response curves plotting relative reduction of the GFP signal (measured by flow cytometry) versus 10 compound concentrations (starting concentration 10 μM, 3 fold dilution steps) of the compounds allowed generation of DC50 values.

[3] = molecular target: Avi-humanTEAD4^217-434 / Cy5 labeled humanYAP^60-100 (Homo sapiens (Human), UniProt Q15561); experiment: In-vitro biochemical TR-FRET assay (TEAD4/YAP); type: binding; details: 1 h at room temperature
Sequence of Avi-humanTEAD4^217-434 / Cy5 labeled humanYAP^60-100 (Q15561 217-434): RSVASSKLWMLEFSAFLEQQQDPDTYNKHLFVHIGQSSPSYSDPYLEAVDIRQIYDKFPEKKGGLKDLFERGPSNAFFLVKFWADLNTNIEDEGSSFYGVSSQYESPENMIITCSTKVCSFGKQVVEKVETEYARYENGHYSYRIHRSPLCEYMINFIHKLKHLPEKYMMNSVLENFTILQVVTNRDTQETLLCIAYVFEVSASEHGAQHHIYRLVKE

[4] = system: YAP-dependent transcription in NCI-H2052 Tet-On shYAP_2371 pLenti6 MCAT_Luc cells; experiment: YAP reporter gene activity assay (MCAT-Luc), NCI-H2052; type: cell-based; details: Homo sapiens, 24 hrs
MKN-45/Ubc-luc cells = experiment: Proliferation assay (resazurin/AlamarBlue), MKN-45; type: cell-based; details: Homo sapiens; MKN-45, 72 hours
Outline: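 MKN-45 cells carrying constitutive Ubc-driven luciferase reporter, treated the day after seeding with eleven 2-fold dilutions (0.1% DMSO) for 72 h at 37 °C. Viability by resazurin, referenced to day-0 plate; GI50 from % growth (100 none, 0 stasis, −100 kill) and residual viability at top concentration.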

[5] = system: MKN-45/Ubc-luc cells (unspecific inhibition of luciferase expression or activity); experiment: Reporter gene assay specificity control (Ubc-Luc), MKN-45; type: cell-based; details: Homo sapiens; MKN-45/Ubc-luc specificity control, 24 hrs
Outline: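 MKN-45 cells stably carrying a ubiquitin C promoter–firefly luciferase construct, treated the day after seeding with eleven 2-fold compound dilutions (0.1% DMSO final) for 24 hrs at 37° C. Luminescence read 5 min after Steady Glo addition; cell-free background subtracted, as a control for nonspecific luciferase inhibition.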

[6] = system: NCI-H2052 Tet-On shYAP_2371 pLenti6 MCAT_Luc cells; experiment: Proliferation assay (resazurin/AlamarBlue), NCI-H2052; type: cell-based; details: Homo sapiens; NCI-H2052, 72 hours
[7] = system: SF268-MCAT_Luc_dox-i-shYAPLevy (Clone 13) cells; experiment: Proliferation assay (resazurin/AlamarBlue), SF268; type: cell-based; details: Homo sapiens, SF-268; SF268, 72 hours

SMILES | IC50 [1] [nM] | DC50 [2] [nM] | IC50 [3] [nM] | IC50 [4] [nM] | GI50 (MKN-45/Ubc-luc cells) [µM] | IC50 [5] [µM] | GI50 [6] [nM] | GI50 [7] [nM]
COc1ccc(C(=O)N2CCC(CC3CCN(CCNC(=O)[C@H]4CC[C@H](NC[C@]5(c6ccccc6)Oc6cc(F)c(Cl)c(-c7c(C(N)=O)ccc(OC)c7F)c6[C@@H]5C)CC4)CC3)CC2)cc1N1CCC(=O)NC1=O (atropisomer, axis not shown) [Example 7, 2-((2S,3S,4S)-5-chloro-2-((((1r,4S)-4-((2-(4-((1-(3-(2,4-dioxotetrahydropyrimidin-1(2H)-yl)-4-methoxybenzoyl)piperidin-4-yl)methyl)piperidin-1-yl)ethyl)carbamoyl)cyclohexyl)amino)methyl)-6-fluoro-3-methyl-2-phenyl-2,3-dihydrobenzofuran-4-yl)-3-fluoro-4-methoxybenzamide] | 0.4 | 3 | < 1 | 29 | > 20 | > 20 | 77 | 26
COc1ccc(C(=O)N2CCC(C3CCN(CCNC(=O)[C@H]4CC[C@H](NC[C@]5(c6ccccc6)Oc6cc(F)c(Cl)c(-c7c(C(N)=O)ccc(OC)c7F)c6[C@@H]5C)CC4)CC3)CC2)cc1N1CCC(=O)NC1=O (atropisomer, axis not shown) [Example 11, 2-((2S,3S,4S)-5-chloro-2-((((1r,4S)-4-((2-(1′-(3-(2,4-dioxotetrahydropyrimidin-1(2H)-yl)-4-methoxybenzoyl)-[4,4′-bipiperidin]-1-yl)ethyl)carbamoyl)cyclohexyl)amino)methyl)-6-fluoro-3-methyl-2-phenyl-2,3-dihydrobenzofuran-4-yl)-3-fluoro-4-methoxybenzamide] | 1.4 | 11 | < 1 | 91 | > 20 | > 20 | 280 | 51
COc1ccc(C(N)=O)c(-c2c(Cl)c(F)cc3c2[C@H](C)[C@@](CN[C@H]2CC[C@H](C(=O)N4CCC(CN5CCN(C(=O)COc6ccc(C)c(N7CCC(=O)NC7=O)c6)CC5)CC4)CC2)(c2ccccc2)O3)c1F (atropisomer, axis not shown) [Example 12, 2-((2S,3S,4S)-5-chloro-2-((((1r,4S)-4-(4-((4-(2-(3-(2,4-dioxotetrahydropyrimidin-1(2H)-yl)-4-methylphenoxy)acetyl)piperazin-1-yl)methyl)piperidine-1-carbonyl)cyclohexyl)amino)methyl)-6-fluoro-3-methyl-2-phenyl-2,3-dihydrobenzofuran-4-yl)-3-fluoro-4-methoxybenzamide] | 0.38 | 1 | 1.6 | 4 | > 2 | > 2 | 15 | 20
COc1ccc(C(N)=O)c(-c2c(Cl)c(F)cc3c2[C@H](C)[C@@](CN[C@H]2CC[C@H](C(=O)N4CCC(OC5CCN(C(=O)c6ccc(Cl)c(N7CCC(=O)NC7=O)c6)CC5)CC4)CC2)(c2ccccc2)O3)c1F (atropisomer, axis not shown) [Example 13, 2-((2S,3S,4S)-5-chloro-2-((((1r,4S)-4-(4-((1-(4-chloro-3-(2,4-dioxotetrahydropyrimidin-1(2H)-yl)benzoyl)piperidin-4-yl)oxy)piperidine-1-carbonyl)cyclohexyl)amino)methyl)-6-fluoro-3-methyl-2-phenyl-2,3-dihydrobenzofuran-4-yl)-3-fluoro-4-methoxybenzamide] | 0.49 | 0.5 | 1.8 | 4.5 | > 2 | > 2 | 13 | 23
COc1ccc(C(N)=O)c(-c2c(Cl)c(F)cc3c2[C@H](C)[C@@](CN[C@H]2CC[C@H](C(=O)N4CCC(OC5CCN(C(=O)COc6ccc(N7CCC(=O)NC7=O)c(C)c6)CC5)CC4)CC2)(c2ccccc2)O3)c1F (atropisomer, axis not shown) [Example 14, 2-((2S,3S,4S)-5-chloro-2-((((1r,4S)-4-(4-((1-(2-(4-(2,4-dioxotetrahydropyrimidin-1(2H)-yl)-3-methylphenoxy)acetyl)piperidin-4-yl)oxy)piperidine-1-carbonyl)cyclohexyl)amino)methyl)-6-fluoro-3-methyl-2-phenyl-2,3-dihydrobenzofuran-4-yl)-3-fluoro-4-methoxybenzamide] | 0.63 | 3 | 1.4 | 3.1 | > 2 | > 2 | 11 | 35

Continued, in another order:

IC50 [1] [nM] | DC50 [2] [nM] | IC50 [3] [nM] | IC50 [4] [nM] | GI50 (MKN-45/Ubc-luc cells) [µM] | IC50 [5] [µM] | GI50 [6] [nM] | SMILES | GI50 [7] [nM]
0.5 | 2 | 1.5 | 16 | > 20 | > 20 | 61 | COc1ccc(C(=O)N2CCN(CC3CCN(C(=O)[C@H]4CC[C@H](NC[C@]5(c6ccccc6)Oc6cc(F)c(Cl)c(-c7c(C(N)=O)ccc(OC)c7F)c6[C@@H]5C)CC4)CC3)CC2)cc1N1CCC(=O)NC1=O (atropisomer, axis not shown) [Example 6, 2-((2S,3S,4S)-5-chloro-2-((((1r,4S)-4-(4-((4-(3-(2,4-dioxotetrahydropyrimidin-1(2H)-yl)-4-methoxybenzoyl)piperazin-1-yl)methyl)piperidine-1-carbonyl)cyclohexyl)amino)methyl)-6-fluoro-3-methyl-2-phenyl-2,3-dihydrobenzofuran-4-yl)-3-fluoro-4-methoxybenzamide] | 39
3.5 | 112 | 1.2 | 350 | > 2 | > 2 | 1190 | COc1ccc(C(=O)N2CCN(CC3CN(C(=O)[C@H]4CC[C@H](NC[C@]5(c6ccccc6)Oc6cc(F)c(Cl)c(-c7c(C(N)=O)ccc(OC)c7F)c6[C@@H]5C)CC4)C3)CC2)cc1N1CCC(=O)NC1=O (atropisomer, axis not shown) [Example 9, 2-((2S,3S,4S)-5-chloro-2-((((1r,4S)-4-(3-((4-(3-(2,4-dioxotetrahydropyrimidin-1(2H)-yl)-4-methoxybenzoyl)piperazin-1-yl)methyl)azetidine-1-carbonyl)cyclohexyl)amino)methyl)-6-fluoro-3-methyl-2-phenyl-2,3-dihydrobenzofuran-4-yl)-3-fluoro-4-methoxybenzamide] | 120
0.43 | 1 | 2.6 | 10 | 12.5 | > 20 | 38 | COc1ccc(C(=O)N2CCC(C3CCN(C(=O)[C@H]4CC[C@H](NC[C@]5(c6ccccc6)Oc6cc(F)c(Cl)c(-c7c(C(N)=O)ccc(OC)c7F)c6[C@@H]5C)CC4)CC3)CC2)cc1N1CCC(=O)NC1=O (atropisomer, axis not shown) [Example 10, 2-((2S,3S,4S)-5-chloro-2-((((1r,4S)-4-(1′-(3-(2,4-dioxotetrahydropyrimidin-1(2H)-yl)-4-methoxybenzoyl)-[4,4′-bipiperidine]-1-carbonyl)cyclohexyl)amino)methyl)-6-fluoro-3-methyl-2-phenyl-2,3-dihydrobenzofuran-4-yl)-3-fluoro-4-methoxybenzamide] | 30
